Reference: patent US8216782B2, “PTTG1 as a biomarker for cancer treatment” (Cedars-Sinai Medical Center, priority 2008, dated 2012)
Entries after “also recorded” stand apart in the source; their conditions may differ.

Assays:
HCT116 PTTG1−/− cells [1] = test: WST-1 cell proliferation assay; assay type: cell-based
Method: (§1) FIG. 4 depicts that PTTG1 regulates cell response to Aurora Kinase inhibition, in accordance with an embodiment of the present invention. (A) PTTG1^−/− cell proliferation was attenuated in response to Aurora Kinase A siRNA (mean±S.D., n=3. P<0.05 vs WT). Cells were seeded into 96-well plates, cultured overnight, and then transfected with siRNAs (100 nM). After 72 hours, premixed WST-1 cell proliferation reagent (10 ul) was added to each well. Cells were incubated for a further four hours and shaken thoroughly for one minute before measurement. […] Cells were seeded into 96-well plates, cultured overnight, and then treated with drug as indicated for 48 hours. Viable cells were measured using Premixed WST-1 cell proliferation reagent. (C) Anchorage-dependent colony formation assay was performed as described herein. […] (mean±S.D., n=3. P<0.05 vs WT) (D) Western blot showing that over-expressed PTTG1 rescued PTTG1^−/− sensitivity to Aurora Kinase inhibitor III (12.5 uM) (mean±S.D., n=3. P>0.05 vs WT); PTTG1 knock-down enhanced WT cell sensitivity to Aurora Kinase inhibitor III (12.5 uM) (mean±S.D., n=3. P>0.05 vs PTTG1^−/−). PTTG1^−/−=PTTG1-null or KO cells.
(§2) Cell proliferation was evaluated using WST-1 cell proliferation reagent (obtained from Clontech Laboratories, Inc.; Mountain View, Calif.). Briefly, 90 μl cells were seeded into 96-well plates and cultured overnight, treated with drugs for 48 hours, and 10 μl premixed WST-1 cell proliferation reagent added. Cells were incubated for a further four hours, shaken and absorbance measured at 450 nm using a Victor 3 multiwell plate reader (obtained from PerkinElmer, Inc.; Waltham, Mass.). Cell viability rate was calculated for each well as A450 treated cells/A450 control cells×100% (A450: OD value at 450 nm).

HCT116 WT cells [2] = test: WST-1 cell proliferation assay; assay type: cell-based; conditions: Homo sapiens, HCT-116, 48 h, read-out: cells remaining viable
Method: as §1, §2

HCT116 PTTG1−/− cells [3] = test: Anchorage-dependent colony formation assay; assay type: cell-based; conditions: PTTG1−/− colonies, 0.16 μM doxorubicin
Method: (§3) Briefly, 20,000 cells were plated in a six-well culture dish, allowed to attach overnight and treated with depicted drug concentrations. Cells were cultured in standard culture medium containing indicated treatments for twelve days and medium re-freshened every three days. Colonies were stained with 0.5% crystal violet in methanol/acetic acid (3:1) and those composed of >50 cells were counted.

HCT116 WT cells [4] = test: Anchorage-dependent colony formation assay; assay type: cell-based; conditions: 0.16 μM doxorubicin
Method: as §3

Aurora Kinase A = test: Kinase activity of Aurora Kinase A immunoprecipitated from treated HCT116 cells; assay type: cell-based; conditions: PTTG1−/− vs WT HCT116 cells
From the text: (§4) FIG. 6 depicts PTTG1 and DNA damage pathway, in accordance with an embodiment of the present invention. […] (B) Aurora Kinase A activity was less inhibited after DNA damage treatment in PTTG1^−/− cells. Lane C1, positive control with Aurora Kinase A; lane C2, negative control without Aurora Kinase A; lane WT, Aurora Kinase A co-immunoprecipitated from HCT116 WT cells after doxorubicin treatment; Lane −/−, Aurora Kinase A immunoprecipitated from HCT116 PTTG1^−/− cells after doxorubicin treatment. Aurora Kinase A activity is higher in PTTG1^−/− than WT HCT116 cells. (C) C, PTTG1 WT plasmid; M3, PTTG1 S165A mutation; M9, PTTG1 S181A mutation. Plasmids were transfected into HCT116 PTTG1^−/− cells and treated with proteosome inhibitor LLnL to enrich phosphorylated PTTG1. Arrow depicts the major band. […] (D) WT, PTTG1 WT plasmid; M9, PTTG1 S181A mutation were transfected into HCT116 PTTG1^−/− and co-immunoprecipitation performed. […] (E) Proposed signaling pathway for PTTG1 action in G2 DNA damage checkpoint.
Aurora Kinase A activity is inhibited by DNA damage (Krystyniak et al., 2006). The inventors therefore tested Aurora Kinase A activity in HCT116 WT and PTTG1^−/− cells after treatment with doxorubicin. […] Phosphorylated PTTG1 may therefore act with Aurora Kinase A and play a role in the DNA damage-induced G2 checkpoint. […]

PTTG1 = test: Western blot of PTTG1 phosphorylation after DNA damage; assay type: cell-based; conditions: 24 hours, 5 μM doxorubicin
From the text: as §4

HCT116 PTTG1−/− cells [5] = test: β-galactosidase staining (senescence); assay type: cell-based; conditions: 0.313 uM, 48 hrs
From the text: (§5) Cells were fixed and stained with β-galactosidase staining kit (Sigma).

HCT116 WT cells [6] = test: β-galactosidase staining (senescence); assay type: cell-based; conditions: 0.313 uM, 48 hrs
From the text: as §5

HCT116 cells = test: Apoptosis by Tunel assay and activated caspase 3 levels; assay type: cell-based
p21 = p21 expression after treatment; assay type: cell-based; conditions: WT and PTTG1−/− cells
From the text: FIG. 10 depicts P21 level is higher in PTTG1^−/− cells than WT. P21 induces senescence.

WT HCT116 tumors = test: Subcutaneous tumor implant in nude mice; assay type: in vivo; conditions: 50 mg/kg, 17 days
Method: Tumor volume was measured twice a week.

PTTG1−/− HCT116 tumors = test: Subcutaneous tumor implant in nude mice; conditions: 50 mg/kg, 17 days
Method: Tumor volume was measured twice a week. Mice were sacrificed at day 18 and tumors were collected and weighted.

| Compound | viability at 1.25 µM (HCT116 PTTG1−/− cells [1]; Homo sapiens, HCT-116, 48 h, read-out: cells remaining viable) [%] | sensitivity of PTTG1−/− cell growth versus WT (WST-1) (HCT116 PTTG1−/− cells [1]; PTTG1−/− vs WT HCT116 cells) | viability at 1.25 µM (HCT116 WT cells [2]) [%] | colonies survived (HCT116 PTTG1−/− cells [3]) [%] | colonies survived (HCT116 WT cells [4]) [%] | Aurora Kinase A activity after doxorubicin treatment (Aurora Kinase A) | phosphorylated PTTG1 (PTTG1) | senescent cells (β-galactosidase staining) (HCT116 PTTG1−/− cells [5]) [%] | senescent cells (β-galactosidase staining) (HCT116 WT cells [6]) [%] | apoptosis (HCT116 cells) | p21 expression (p21) | tumor growth (WT HCT116 tumors) | tumor growth (PTTG1−/− HCT116 tumors) |
| --- | --- | --- | --- | --- | --- | --- | --- | --- | --- | --- | --- | --- | --- |
| COc1cccc2c1C(=O)c1c(O)c3c(c(O)c1C2=O)C[C@@](O)(C(=O)CO)C[C@@H]3O[C@H]1C[C@H](N)[C@H](O)[C@H](C)O1 [doxorubicin] | 27 | more sensitive | 55 | 36 | 74 | less suppressed in PTTG1^−/− than WT cells | Increased phosphorylated PTTG1 |  |  |  |  |  |  |
| O=C(CCCCCCC(=O)Nc1ccccc1)NO [SAHA, suberoylanilide hydroxamic acid] |  |  |  |  |  |  |  | 43 | 7 | did not cause apoptosis | enhanced p21 expression | did not show any difference between control and treated group; also recorded: had no effect | significantly inhibited |
